Data taken from patent US8445005B2, “Antiwrinkle agent, lipolysis promoter, external composition for skin and food and beverage composition” (Kao Corporation, priority 2004, dated 2013).

Columns and labels:
[1] = system: Mouse 3T3-L1 cells; test: Lipolysis promoting effect: glycerol release from mature adipocytes; assay type: cell-based; conditions: test concentration 0.10% by mass; 90 minutes; norepinephrine 3×10^−8 mol/L; control = 100
Protocol: Mouse 3T3-L1 cells purchased from Dainippon Pharmaceutical Co., Ltd. were cultured in a 24-well culture plate according to the method of […], et al. ([…]. et al., Biochim. Biophys. Acta., 1581: 36-48 (2002)) at 37° C. in a 5% (v/v) CO2 atmosphere, and these cells were used in the test as mature adipocytes. Test media were prepared by adding test samples at predetermined concentrations to DMEM medium containing bovine serum albumin and norepinephrine (final concentration: 3×10^-8 mol/L). The said mature adipocytes were cultured in the test media for 90 minutes to be reacted with the test samples. Following the reaction, the glycerol released into the media was quantified by […] using the F Kit Glycerol (Roche). The lipolysis promotion rate was calculated according to the equation below based on the quantified glycerol values to serve as an indicator of lipolysis promoting effect: Lipolysis promotion rate(%)=[A/B]×100 (wherein A represents the amount of glycerol with addition of test sample, and B represents the amount of glycerol of a control (without addition of test sample)). (Test Results) […] Zingerone and caffeine were used as comparative controls.

[2] = system: photoaged skin; test: Wrinkle ameliorative effect: wrinkle score in photo-aged hairless mice; assay type: in vivo; conditions: Results 1; 1.0% sample in 50% aqueous ethanol, 0.1 ml once a day, five times a week on dorsal skin; score 0-3; base only 2.65 ± 0.08; listed as Example 2
Protocol: Samples containing 1.0% each of the guinea ginger extract, paradol or acetylated guinea ginger extract obtained in Production Examples 1 to 3 were prepared, using a 50% aqueous ethanol solution for the base (Example 1, 2 or 3, respectively), and wrinkle ameliorative effects on photoaged skin were investigated using the test method described below. Hairless mice, 10 weeks old at the start of the test, were used in groups of 10 animals each. Photo-aging was induced by irradiating skin with UVA and UVB once a day, five times a week for eight weeks. The irradiated doses were 20, 25 and 30 J/cm^2 for UVA and 20, 30 and 40 mJ/cm^2 for UVB. The doses were elevated every week, and the skin was irradiated at the maximum doses after the third week. Wrinkle ameliorative effect was evaluated using a wrinkle score and a dermal collagen level. The wrinkle score was determined according to the method of Bissett, et al. (Photochem. Photobiol., 46: 367-378, 1987). Namely, the size and depth of wrinkles were comprehensively evaluated macroscopically, and evaluated according to one of four levels consisting of a score of 3 for “large, deep wrinkles able to be confirmed”, 2 for “wrinkles able to be confirmed”, 1 for “wrinkles unable to be confirmed” and 0 for “normal skin texture observed”. […] Wrinkle scores were then determined following completion of the final application. […]

SMILES | Lipolysis promotion rate (%) (mean ± SE) [1] | Wrinkle Score (mean ± SE) [2]
Cn1c(=O)c2c(ncn2C)n(C)c1=O [Caffeine] | 234.93 ± 11.23 | 
CCCCCCCC(=O)CCc1ccc(O)c(OC)c1 [Paradol, 1-(4′-hydroxy-3′-methoxyphenyl)-3-decanone] | 554.68 ± 107.62 | 2.40 ± 0.23
COc1cc(CCC(C)=O)ccc1O [Zingerone] | 191.85 ± 69.83 | 
